Experimental findings from patent US12448388B2, “PRMT5 inhibitors and uses thereof” (Gilead Sciences, Inc., priority 2023, dated 2025) are described below.

The structures appear in SMILES notation. A value given as a limit tells only on which side of the number the result lay.

The test system of this experiment is HCT116 MTAP-deleted cell lines. The experiment is described as follows: Cell viability assay (CellTiter-Glo, 7 days), HCT116 MTAP-deleted. It is filed as cell-based. The note with it: Homo sapiens, HCT-116; cell viability, HCT116 MTAP-deleted; class symbols; read-out: CC50. The gist of the method: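 PRMT5 inhibitors were serially diluted in DMSO and acoustically spotted as dose-response series into plates before cell seeding. Cells were grown with compound for 7 days at 37 °C, 5% CO2, 90% humidity, then viability was read by CellTiter-Glo luminescence and reported as CC50.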
As for `CN(C(=O)c1cc2c(cn1)nc(N)c1cncn12)[C@H]1c2ccc(C(F)(F)F)cc2[C@H]2C[C@H]21` [Ff-256, 4-amino-N-methyl-N-((1aS,6R,6aR)-3-(trifluoromethyl)-1,1a,6,6a-tetrahydrocyclopropa[a]inden-6-yl)imidazo[1,5-a]pyrido[3,4-e]pyrazine-8-carboxamide], the CC50 fell in the range of 100 to 1000 nM.

Regarding `Nc1nc2cnc(C(=O)N3CCC[C@@H]4Oc5cc(C(F)(F)F)c(Cl)cc5[C@@H]43)cc2n2cncc12` [Ff-259, (4-aminoimidazo[1,5-a]pyrido[3,4-e]pyrazin-8-yl)((4aS,9bS)-8-chloro-7-(trifluoromethyl)-3,4,4a,9b-tetrahydrobenzofuro[3,2-b]pyridin-1(2H)-yl)methanone], the CC50 was under 100 nM.

For the compound `Nc1nc2cc(F)c(C(=O)N3CCC[C@@H]4Oc5cc(Cl)ccc5[C@@H]43)cc2n2cncc12` [Ff-260, (4-amino-7-fluoroimidazo[1,5-a]quinoxalin-8-yl)((4aS,9bS)-7-chloro-3,4,4a,9b-tetrahydrobenzofuro[3,2-b]pyridin-1(2H)-yl)methanone], the 50% cytotoxic concentration (CC50) is under 100 nM.

Consider `C[C@@H]1C[C@@H]2Oc3cc(C(F)(F)F)c(F)cc3[C@@H]2N(C(=O)c2cc3c(cn2)nc(N)c2cncn23)C1` [Ff-261, (4-aminoimidazo[1,5-a]pyrido[3,4-e]pyrazin-8-yl)((3R,4aS,9bS)-8-fluoro-3-methyl-7-(trifluoromethyl)-3,4,4a,9b-tetrahydrobenzofuro[3,2-b]pyridin-1(2H)-yl)methanone], for which the half-maximal cytotoxic concentration (CC50) is under 100 nM.

Regarding `Nc1nc2ccc(C(=O)N(Cc3ccc(OC(F)F)cc3F)C34CC(C3)C4)cc2n2cncc12` [Ff-264, 4-amino-N-(bicyclo[1.1.1]pentan-1-yl)-N-(4-(difluoromethoxy)-2-fluorobenzyl)imidazo[1,5-a]quinoxaline-8-carboxamide], the half-maximal cytotoxic concentration (CC50) lay in the range of 100 to 1000 nM.

`Nc1nc2cc(F)c(C(=O)N(Cc3ccc(OC(F)F)cc3F)C34CC(C3)C4)cc2n2cncc12` [Ff-265, 4-amino-N-(bicyclo[1.1.1]pentan-1-yl)-N-(4-(difluoromethoxy)-2-fluorobenzyl)-7-fluoroimidazo[1,5-a]quinoxaline-8-carboxamide]: the CC50 is under 100 nM.

With `CN(C(=O)c1ccc2nc(N)c3cncn3c2c1)C1CCc2nc(C(F)(F)F)ccc21` (centres unmarked) [Ff-266, 4-amino-N-methyl-N-(2-(trifluoromethyl)-6,7-dihydro-5H-cyclopenta[b]pyridin-5-yl)imidazo[1,5-a]quinoxaline-8-carboxamide], the CC50 was in the range of 100 to 1000 nM.

Consider `Nc1nc2ccc(C(=O)N(Cc3ccc(C(F)(F)F)cn3)C34COC(C3)C4)cc2n2cncc12` [Ff-267, 4-amino-N-(2-oxabicyclo[2.1.1]hexan-4-yl)-N-((5-(trifluoromethyl)pyridin-2-yl)methyl)imidazo[1,5-a]quinoxaline-8-carboxamide], for which the cytotoxic concentration (CC50) is 100 to 1000 nM.

Regarding `Nc1nc2cc(F)c(C(=O)N(Cc3ccc(C(F)(F)F)cn3)C34COC(C3)C4)cc2n2cncc12` [Ff-268, 4-amino-N-(2-oxabicyclo[2.1.1]hexan-4-yl)-7-fluoro-N-((5-(trifluoromethyl)pyridin-2-yl)methyl)imidazo[1,5-a]quinoxaline-8-carboxamide], the cytotoxic concentration (CC50) was under 100 nM.

`CN(C(=O)c1cc2c(cc1F)nc(N)c1cncn12)[C@@H]1COc2cc(C#N)ccc21` [Ff-269, (S)-4-amino-N-(6-cyano-2,3-dihydrobenzofuran-3-yl)-7-fluoro-N-methylimidazo[1,5-a]quinoxaline-8-carboxamide]: the 50% cytotoxic concentration (CC50) was under 100 nM.

For `CC1(N(Cc2ccc(C(F)(F)F)cc2F)C(=O)c2ccc3nc(N)c4cncn4c3c2)COC1` [Ff-270, 4-amino-N-(2-fluoro-4-(trifluoromethyl)benzyl)-N-(3-methyloxetan-3-yl)imidazo[1,5-a]quinoxaline-8-carboxamide], the CC50 was 100 to 1000 nM.

Consider `COc1ccc2c(n1)CCC2N(C)C(=O)c1cc2c(cc1F)nc(N)c1cncn12` (centres unmarked) [Ff-271, 4-amino-7-fluoro-N-(2-methoxy-6,7-dihydro-5H-cyclopenta[b]pyridin-5-yl)-N-methylimidazo[1,5-a]quinoxaline-8-carboxamide], for which the CC50 lay within 100 to 1000 nM.

Take `Nc1nc2cc(F)c(C(=O)N(Cc3ccc(C(F)(F)F)cc3F)C34COC(C3)C4)cc2n2cncc12` [Ff-272, 4-amino-N-(2-oxabicyclo[2.1.1]hexan-4-yl)-7-fluoro-N-(2-fluoro-4-(trifluoromethyl)benzyl)imidazo[1,5-a]quinoxaline-8-carboxamide]: the CC50 is under 100 nM.

Regarding `CO[C@@H]1COCC[C@H]1N(Cc1ccc(C(F)(F)F)cc1F)C(=O)c1cc2c(cc1F)nc(N)c1cncn12` [Ff-273, 4-amino-7-fluoro-N-(2-fluoro-4-(trifluoromethyl)benzyl)-N-((3S,4R)-3-methoxytetrahydro-2H-pyran-4-yl)imidazo[1,5-a]quinoxaline-8-carboxamide], the half-maximal cytotoxic concentration (CC50) was under 100 nM.

As to `CO[C@H]1COCC[C@H]1N(Cc1ccc(C(F)(F)F)cc1F)C(=O)c1cc2c(cc1F)nc(N)c1cncn12` [Ff-274, 4-amino-7-fluoro-N-(2-fluoro-4-(trifluoromethyl)benzyl)-N-((3R,4R)-3-methoxytetrahydro-2H-pyran-4-yl)imidazo[1,5-a]quinoxaline-8-carboxamide], the 50% cytotoxic concentration (CC50) is under 100 nM.

`CN(C(=O)c1cc2c(cc1F)nc(N)c1cncn12)C1COCc2nc(Br)ccc21` (centres unmarked) [Ff-275, 4-amino-N-(2-bromo-5,8-dihydro-6H-pyrano[3,4-b]pyridin-5-yl)-7-fluoro-N-methylimidazo[1,5-a]quinoxaline-8-carboxamide]: the 50% cytotoxic concentration (CC50) was under 100 nM.

With `Nc1nc2cc(F)c(C(=O)N(Cc3ccc(C(F)(F)F)cc3F)c3cnn(C4CC4)c3)cc2n2cncc12` [Ff-276, 4-amino-N-(1-cyclopropyl-1H-pyrazol-4-yl)-7-fluoro-N-(2-fluoro-4-(trifluoromethyl)benzyl)imidazo[1,5-a]quinoxaline-8-carboxamide], the CC50 was under 100 nM.

For `Nc1nc2cc(F)c(C(=O)N(Cc3ccc(C(F)(F)F)cn3)c3ccccc3)cc2n2cncc12` [Ff-277, 4-amino-7-fluoro-N-phenyl-N-((5-(trifluoromethyl)pyridin-2-yl)methyl)imidazo[1,5-a]quinoxaline-8-carboxamide], the CC50 is under 100 nM.

On to `CN(C(=O)c1cc2c(cc1F)nc(N)c1cncn12)[C@@H]1COCc2nc(C(F)(F)F)ccc21` [Ff-281, (S)-4-amino-7-fluoro-N-methyl-N-(2-(trifluoromethyl)-5,8-dihydro-6H-pyrano[3,4-b]pyridin-5-yl)imidazo[1,5-a]quinoxaline-8-carboxamide], for which the 50% cytotoxic concentration (CC50) is under 100 nM.

For `CN(C(=O)c1cc2c(cc1F)nc(N)c1cncn12)[C@H]1COCc2nc(C(F)(F)F)ccc21` [Ff-282, (R)-4-amino-7-fluoro-N-methyl-N-(2-(trifluoromethyl)-5,8-dihydro-6H-pyrano[3,4-b]pyridin-5-yl)imidazo[1,5-a]quinoxaline-8-carboxamide], the half-maximal cytotoxic concentration (CC50) is 100 to 1000 nM.

As to `Nc1nc2cc(F)c(C(=O)N(Cc3ccc(C(F)(F)F)cc3F)c3cnn4c3CCC4)cc2n2cncc12` [Ff-285, 4-amino-N-(5,6-dihydro-4H-pyrrolo[1,2-b]pyrazol-3-yl)-7-fluoro-N-(2-fluoro-4-(trifluoromethyl)benzyl)imidazo[1,5-a]quinoxaline-8-carboxamide], the CC50 is under 100 nM.

Take `Cn1ccc(N(Cc2ccc(C(F)(F)F)cc2F)C(=O)c2cc3c(cc2F)nc(N)c2cncn23)n1` [Ff-286, 4-amino-7-fluoro-N-(2-fluoro-4-(trifluoromethyl)benzyl)-N-(1-methyl-1H-pyrazol-3-yl)imidazo[1,5-a]quinoxaline-8-carboxamide]: the cytotoxic concentration (CC50) is under 100 nM.

As for `Cn1cc(N(Cc2ncc(C(F)(F)F)cc2F)C(=O)c2cc3c(cc2F)nc(N)c2cncn23)cn1` [Ff-290, 4-amino-7-fluoro-N-((3-fluoro-5-(trifluoromethyl)pyridin-2-yl)methyl)-N-(1-methyl-1H-pyrazol-4-yl)imidazo[1,5-a]quinoxaline-8-carboxamide], the CC50 is under 100 nM.

Regarding `Nc1nc2cc(F)c(C(=O)N(Cc3ccc(C(F)(F)F)cc3F)c3cnn(C(F)F)c3)cc2n2cncc12` [Ff-291, 4-amino-N-(1-(difluoromethyl)-1H-pyrazol-4-yl)-7-fluoro-N-(2-fluoro-4-(trifluoromethyl)benzyl)imidazo[1,5-a]quinoxaline-8-carboxamide], the CC50 was under 100 nM.

As for `CN(C(=O)c1cc2c(cc1F)nc(N)c1cncn12)[C@@H]1COCc2cc(-c3cnn(C(F)F)c3)ccc21` [Ff-292, (S)-4-amino-7-fluoro-N-methyl-N-(7-(1-(difluoromethyl)-1H-pyrazol-4-yl)isochroman-4-yl)imidazo[1,5-a]quinoxaline-8-carboxamide], the CC50 was under 100 nM.

Regarding `CN(C(=O)c1ccc2nc(N)c3cncn3c2c1)[C@@H]1COCc2nc(C(F)(F)F)ccc21` [Ff-302, (S)-4-amino-N-methyl-N-(2-(trifluoromethyl)-5,8-dihydro-6H-pyrano[3,4-b]pyridin-5-yl)imidazo[1,5-a]quinoxaline-8-carboxamide], the CC50 was under 100 nM.

In the case of `Cc1ncn2c1c(N)nc1cc(F)c(C(=O)N(C)[C@@H]3COCc4nc(C(F)(F)F)ccc43)cc12` [Ff-303, (S)-4-amino-7-fluoro-N,3-dimethyl-N-(2-(trifluoromethyl)-5,8-dihydro-6H-pyrano[3,4-b]pyridin-5-yl)imidazo[1,5-a]quinoxaline-8-carboxamide], the CC50 was under 100 nM.

Turning to `Cc1ncn2c1c(N)nc1cc(F)c(C(=O)N(C)[C@@H]3COc4cc(C(F)(F)F)ccc43)cc12` [Ff-305, (S)-4-amino-7-fluoro-N,3-dimethyl-N-(6-(trifluoromethyl)-2,3-dihydrobenzofuran-3-yl)imidazo[1,5-a]quinoxaline-8-carboxamide], the CC50 is under 100 nM.

On to `Cn1ccc(N(Cc2ccc(C(F)(F)F)cn2)C(=O)c2cc3c(cc2F)nc(N)c2cncn23)n1` [Ff-306, 4-amino-7-fluoro-N-(1-methyl-1H-pyrazol-3-yl)-N-((5-(trifluoromethyl)pyridin-2-yl)methyl)imidazo[1,5-a]quinoxaline-8-carboxamide], for which the CC50 is under 100 nM.

What is called CC50 is the concentration that lowers cell viability or growth by half.
